Measurements taken from ChEMBL document CHEMBL1157539, “Thousands of chemical starting points for antimalarial lead identification” (Nature, 2010).

Test system: Plasmodium falciparum
Experiment: GSK_TCMDC: Inhibition of Plasmodium falciparum 3D7 in whole erythrocytes, using parasite LDH activity as an index of growth.
Assay type: functional, organism-based
Settings: Plasmodium falciparum, 3D7

SMILES | XC50 [µM]
CCOC(=O)CCCOc1cc(Cc2cnc(N)nc2N)cc(OC)c1OC | 0.239
Fc1ccc2[nH]c(-c3cccc(-c4cccc(CN5CCN(c6cnccn6)CC5)c4)c3)nc2c1 | 1.06
Oc1ccc(Cl)c2c1C(c1ccccc1)=NCC2 | 0.54
COc1ccccc1CCCON1C(=N)N=C(N)NC1(C)C | 0.0032
COc1ccc2nccc(N3CCN(CCNCc4ccc5c(n4)NC(=O)CO5)CC3)c2c1 | 1.16
COc1ccc(O)c(C(=O)c2cc(C#N)c(=O)n(-c3ccc(Oc4ccccc4)cc3)c2)c1 | 0.737
CCN(C)c1cc(C(=O)N[C@@H](Cc2ccccc2)[C@H](O)CNC(C)(C)c2cccc(OC)c2)cc(N2CCCC2=O)c1 | 0.073
N=C(N)Nc1nc(-c2cccc(NC(=O)NCC(c3ccccc3)c3ccccc3)c2)cs1 | 0.791
COc1ccc(-c2cccc(NC(=O)c3cccc(Cl)c3)c2)cc1CNC(C)C | 0.721
COc1ccc(CN2CCC(CN3CC4(OC3=O)c3ccccc3-c3ccccc34)C2)c(O)c1 (centres undefined) | 0.613
COc1ccc(Nc2nc(C)cc(NC3CCCC3)n2)cc1 | 0.872
NC(=O)C1CCN(Cc2cccc(-c3cccc(-c4nc5cc(C(F)(F)F)ccc5[nH]4)c3)c2)CC1 | 0.641
COc1ccccc1-n1c(SCC(=O)c2ccc3c(c2)CC(=O)N3C)nnc1-c1cccs1 | 0.963
Cc1cc(NC(=O)Nc2cccc(C#N)c2)c2ccccc2n1 | 0.581
O=C(/C=C/c1ccc(Cl)c(Cl)c1)NCCCCCN1CCC(NC(=O)Nc2ccc(Oc3ccccc3)cc2)C1 (centres undefined) | 0.594
CC(=O)Oc1cc(C)ccc1C1CCN(CCCCNC(=O)c2ccc(-c3ccc(C(F)(F)F)cc3)cc2)CC1 | 0.646
O=C(N[C@@H](CC1CCCCC1)C(=O)NCCN1CCCCC1)c1ccc(O)c(-c2cccc(C(F)(F)F)c2)c1 | 0.831
CC(C)(CNC(=O)[C@H]1CCCN1)c1nc(-c2ccc(Cl)c(O)c2)c(-c2ccncc2)[nH]1 | 1.27
CCOc1ccc2nc3cc(NC(=O)c4ccco4)ccc3c(N)c2c1 | 0.802
COC(=O)c1cccc(CNCc2cccc(-c3cccc(-c4nc5ccccc5[nH]4)c3)c2)c1 | 0.504
CC(C)Oc1ccccc1-c1csc(C(=O)NCC2CCN(Cc3ccc(C(C)(C)C)cc3)C2)c1 (centres undefined) | 1.07
Cc1cc(N2CCCC2)nc(Nc2ccc(NC(=O)C(C)(C)C)cc2)n1 | 1.07
NCC1CCCN1Cc1ccc(-c2ccc(-c3nc4cc(C(F)(F)F)ccc4[nH]3)cc2)cc1 (centres undefined) | 0.959

SMILES | XC50 [µM]
O=C1CCCN1CCCNCc1ccc(-c2ccc(-c3nc4cc(F)ccc4[nH]3)cc2)cc1 | 0.603
Cc1cc(NC(=O)CCN2CCN(c3cccc(Cl)c3Cl)CC2)ccc1N1CCN(C(C)C)CC1 | 0.847
O=S(=O)(c1ccc2ccccc2c1)N1CCCN(Cc2ccc(OCCCN3CCCCC3)cc2)CC1 | 1.1
COc1ccc2nccc([C@@H](O)CN3CCC(NC(=O)COc4nc(SCc5ccc(F)cc5)nc5c4CCC5)CC3)c2c1 | 0.595
CCn1ccc2c(N3CCCCS3(=O)=O)cc(C(=O)N[C@@H](Cc3ccccc3)[C@H](O)CNC(C)(C)CCCC(C)C)cc21 | 0.418
COc1ccc2ncc(F)c(CCN3CC[C@@H](CNCc4ccc5c(c4C)OCCO5)C3)c2n1 | 1.03
COC(=O)c1cccc(CNCc2ccc(-c3cccc(-c4nc5cccc(C)c5[nH]4)c3)cc2)c1 | 0.306
O=C(/C=C/c1ccc(Cl)cc1)NCCCCCN1CCCC(C(=O)Nc2ccc(Cl)c(Cl)c2)C1 (centres undefined) | 0.833
Cc1cc(-c2cccc(CNC3CCCC3)c2)ccc1S(=O)(=O)NCCN1CCCC1 | 1.24
COc1ccc2nccc([C@@H](O)CN3CCC(NCc4ccc5c(c4)NC(=O)CS5)CC3)c2c1 | 0.567
CC1(C)NC(N)=NC(=N)N1OCCCOc1ccc([N+](=O)[O-])cc1 | 0.0032
CC1CC(C)CN(CC(O)CNC(=O)Nc2ccc(Br)cc2)C1 (centres undefined) | 1.05
COc1cccc(Nc2nc(C)cc(NCc3ccc(-c4c(C)noc4C)cc3)n2)c1 | 0.88
CN(C(=O)Nc1ccc(F)cc1)C1CCN(CCCCCNC(=O)/C=C/c2ccc(Cl)c(Cl)c2)CC1 | 0.886
Cc1[nH]cc(Br)c(=O)c1-c1ccc(Oc2ccccc2)cc1 | 0.678
CN1CCN(c2ccc(Nc3c(C(N)=O)cnc4cc(-c5ccoc5)ccc34)cc2)CC1 | 0.806
CCOC(C(=O)OCC1CCCN(C)C1)(c1ccccc1)c1ccccc1 (centres undefined) | 0.868
CN(C)c1ccc(-c2csc(C(=O)NC3CCCCN(Cc4ccc(C(C)(C)C)cc4)C3)c2)cc1 (centres undefined) | 1.11
N#Cc1cccc(NC(=O)Nc2ccc(CC(=O)N3CCc4cc(Cl)c(N5CCN(C/C=C/c6ccccc6)CC5)cc43)cc2)c1 | 0.875
COc1ccc2c(c1)S(=O)(=O)N=C(N1CCCC1c1ccc(Cl)c(Cl)c1)N2C (centres undefined) | 1.28
Cc1cccc2nc(-c3ccc(-c4cccc(NC(=O)C(C)CN(C)C)c4)cc3)[nH]c12 (centres undefined) | 0.652
COc1cc(Nc2nccc(Nc3ccc4c(C)n[nH]c4c3)n2)cc2ccccc12 | 0.699
CCCCC(=O)Nc1nc2ccc([N+](=O)[O-])cc2s1 | 0.756

SMILES | XC50 [µM]
Fc1ccc2[nH]c(-c3cccc(-c4cccc(CNCC5CCCO5)c4)c3)nc2c1 (centres undefined) | 0.513
CCOC(=O)N/N=C/[C@H](CCc1ccccc1)NC(=O)[C@H](CC(C)C)NC(=O)c1cc2cccc(OC)c2o1 | 0.88
c1ccc(CCNCc2ccc(-c3cccc(CNc4ccc5ncccc5c4)c3)cc2)cc1 | 0.926
CC(C)COc1ccc(Cl)cc1Cc1ccc(-c2nc3cnc4ccccc4c3[nH]2)o1 | 1.26
C=C[C@]1(C)C[C@@H](OC(=O)c2cncn(COC)c2=O)[C@]2(C)[C@H](C)CC[C@]3(CCC(=O)[C@H]32)[C@@H](C)[C@@H]1O | 0.878
Cc1cc2nc(-c3ccc(/C=C/C(=O)NCc4ccc(Cl)c(Cl)c4)cc3)[nH]c2cc1C | 0.824
COc1cc2nc(NCCc3cccc(Cl)c3)nc(NCc3ccccc3)c2cc1OC | 0.124
COc1ccccc1CCNc1nc(C)cc(N[C@@H](CC(C)C)C(=O)NCc2cccc(F)c2)n1 | 0.973
CC(=O)Nc1nc(C(=O)Nc2ccc(-c3cccc(-c4nc5cc(C(F)(F)F)ccc5[nH]4)c3)cc2)cs1 | 0.184
COc1ccc2nccc([C@@H](O)CN3CCC(NCc4cn5cc(F)ccc5n4)CC3)c2c1 | 0.784
CCCCNC(=N)c1ccc(OCCCCCOc2ccc(C(=N)NCCCC)cc2)cc1 | 0.114
COc1cccc(-c2csc(C(=O)NCC3CCN(Cc4ccc(C(C)C)cc4)C3)c2)c1 (centres undefined) | 1.39
Cc1cccc2nc(-c3cccc(-c4cccc(CNCc5cnn(-c6ccccc6)n5)c4)c3)[nH]c12 | 0.663
COc1ccc(CNCCc2cccs2)cc1-c1cccc(S(=O)(=O)NCCN2CCCC2)c1 | 0.877
COc1ccc(NC(=O)[C@H](CC(C)C)Nc2cc(C)nc(NCC3CCCCC3)n2)cc1 | 1.1
CC(C)(C)CCN1CCC(CNC(=O)c2cc(-c3cccc(Cl)c3)cs2)C1 (centres undefined) | 0.819
COc1cc(C)nc2ccc(NC(=O)Nc3ccc4nc(C)cc(OC)c4c3)cc12 | 0.548
CCCN1CCN(CC(O)CNC(=O)Nc2ccc(Br)cc2)CC1 (centres undefined) | 0.063
Cc1ccc(O)cc1Nc1ccnc2cc(-c3cccc(CNCCS(C)(=O)=O)c3)ccc12 | 0.836
CN(C)CCNc1ncnc2c1[nH]c1ccc(Cl)cc12 | 0.601
NCCCCNc1cc(-c2ccnc(Nc3cccc(Cl)c3)n2)ccn1 | 0.284
CCC1CN(S(=O)(=O)c2ccc3c(c2)NC(=O)CC(=O)N3)c2cc(Cl)ccc2O1 (centres undefined) | 0.656
O=C(CCc1c[nH]cn1)Nc1cccc(-c2cccc(-c3nc4ccccc4[nH]3)c2)c1 | 0.66
